Assays:
[1] = test system: model for gastric ulcer caused by water immersion under restraint; assay: water-immersion restraint stress gastric ulcer model, intragastric hemorrhage; type: in vivo, Wistar male rats; conditions: in powdered feed; paroxetine 298 mg/kg diet, lysine hydrochloride 13.3 g/kg diet, arginine 13.3 g/kg diet; water-immersion restraint stress 5 hours
Procedure: A widely used model for gastric ulcer caused by water immersion under restraint was used. That is, rats were placed in a stress cage and immersed in water to the chest for 5 hours (at a temperature of 22-25° C.). The stomach was removed and the degree of intragastric hemorrhage was observed and the hemorrhage area was calculated using an NHI image software.
The test compound was evaluated as follows. Five-week-old Wistar male rats were divided into three groups. The first group was bred with a normal powdered feed; the second group with a powdered feed to which was added a selective serotonin reuptake inhibitor (SSRI) (paroxetine; Glaxo-SmithKline; 298 mg/kg diet) alone; and the third group with a powdered feed containing the same amount of the same SSRI and lysine hydrochloride (13.3 g/kg diet) to which was additionally added arginine (13.3 g/kg diet). Each group consisted of 10 animals. Rats could freely feed before they reached 14 weeks of age. Thereafter, no feed and water were given for 2 days, and on day 3, all of the rats were subjected to the water-immersion restraint stress for 5 hours.

[2] = test system: animal model of irritable bowel syndrome (wrap-restraint stress); assay: wrap-restraint stress irritable bowel syndrome model, amount of feces excreted; type: in vivo, Wistar male rats; conditions: oral, 40 minutes before wrap-restraint stress; lysine hydrochloride 1 g/kg, alprazolam 10 mg/kg; vs control
Procedure: An animal model of irritable bowel syndrome was prepared according to the method as described by Williams et al. (Williams, C. L., Villar, R. G., Peterson, J. M., Burks, T. F., “Stress-induced changes in intestinal transit in the rat: a model for irritable bowel syndrome,” Gastroenterol., vol. 94, pp. 611-621 (1988)). That is, a cotton tape was placed around the anterior limbs of seven-week-old Wistar male rats, the rats were kept in a bracket cage, and then the amount of feces excreted during 2 hours was measured. A test compound was orally administered 40 minutes before starting the wrap-restraint stress. The following groups were examined: 1) control group; 2) a group to which lysine hydrochloride (1 g/kg) alone was given; 3) a group to which a minor tranquilizer alprazolam (10 mg/kg; Takeda Chem. Ind.) alone was given; and 4) a combination group to which lysine hydrochloride (1 g/kg) and alprazolam (10 mg/kg) were given. Each group consisted of 10 animals.

SMILES: Fc1ccc([C@@H]2CCNC[C@H]2COc2ccc3c(c2)OCO3)cc1 [SSRI, paroxetine]
- intragastric hemorrhage (hemorrhage area) [1]: significantly exacerbated the intragastric hemorrhage

SMILES: Cc1nnc2n1-c1ccc(Cl)cc1C(c1ccccc1)=NC2 [alprazolam]
- effect on stress-induced increase of amount of feces excreted during 2 hours [2]: no clear effect was observed

SMILES: Cl.NCCCC[C@H](N)C(=O)O [lysine hydrochloride]
- effect on stress-induced increase of amount of feces excreted during 2 hours [2]: no clear effect was observed
